Test results as given in PubChem BioAssay AID330 (DTP/NCI, 2004).
Values joined by “and” are separate entries in the source; they are usually repeats but may differ in a detail not shown here. Equal entries are not always repeated. Toxic doses and inconclusive results are not listed. Rule for the calls: active = survival T/C of 150% or more; inactive = T/C below 125% in these data.

Test system: P388 leukemia ip, CD2F1 mice, survival T/C
Experiment: NCI In Vivo Anticancer Drug Screen. Data for tumor model P388 Leukemia (intraperitoneal) in CD2F1 (CDF1) mice
Settings: endpoint: median survival time, higher = longer survival
How it was run: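 Mice carrying the transplanted tumor received test compound or vehicle. Survival was recorded in each group, and the value is the treated-group measurement divided by that of the vehicle-treated control group.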

[1] = dose: 100.0 mg/kg/injection, schedule: Q01DX009 (ip), vehicle: saline
[2] = dose: 15.0 mg/kg/injection, schedule: Q01DX005 (ip), vehicle: saline with Tween-80
[3] = dose: 30.0 mg/kg/injection, schedule: Q01DX005 (ip), vehicle: saline with Tween-80
[4] = dose: 60.0 mg/kg/injection, schedule: Q01DX005 (ip), vehicle: saline with Tween-80
[5] = dose: 50.0 mg/kg/injection, schedule: Q01DX009 (ip), vehicle: saline
[6] = dose: 100.0 mg/kg/injection, schedule: Q01DX001 (ip), vehicle: Klucel (hydroxypropylcellulose) (HPC)
[7] = dose: 50.0 mg/kg/injection, schedule: Q04DX003 (ip), vehicle: saline with Tween-80
[8] = dose: 100.0 mg/kg/injection, schedule: Q04DX003 (ip), vehicle: saline with Tween-80
[9] = dose: 50.0 mg/kg/injection, schedule: Q01DX005 (ip), vehicle: saline with Tween-80
[10] = dose: 100.0 mg/kg/injection, schedule: Q01DX005 (ip), vehicle: saline with Tween-80
[11] = dose: 200.0 mg/kg/injection, schedule: Q01DX005 (ip), vehicle: saline with Tween-80
[12] = dose: 50.0 mg/kg/injection, schedule: Q01DX005 (ip), vehicle: saline
[13] = dose: 100.0 mg/kg/injection, schedule: Q01DX005 (ip), vehicle: saline
[14] = dose: 200.0 mg/kg/injection, schedule: Q01DX005 (ip), vehicle: saline
[15] = dose: 50.0 mg/kg/injection, schedule: Q01DX005 (ip), vehicle: Klucel (hydroxypropylcellulose) (HPC)
[16] = dose: 100.0 mg/kg/injection, schedule: Q01DX005 (ip), vehicle: Klucel (hydroxypropylcellulose) (HPC)
[17] = dose: 200.0 mg/kg/injection, schedule: Q01DX005 (ip), vehicle: Klucel (hydroxypropylcellulose) (HPC)
[18] = dose: 50.0 mg/kg/injection, schedule: Q04DX003 (ip), vehicle: Klucel (hydroxypropylcellulose) (HPC)
[19] = dose: 100.0 mg/kg/injection, schedule: Q04DX003 (ip), vehicle: Klucel (hydroxypropylcellulose) (HPC)
[20] = dose: 200.0 mg/kg/injection, schedule: Q04DX003 (ip), vehicle: Klucel (hydroxypropylcellulose) (HPC)
[21] = dose: 50.0 mg/kg/injection, schedule: Q01DX009 (ip), vehicle: Klucel (hydroxypropylcellulose) (HPC)
[22] = dose: 100.0 mg/kg/injection, schedule: Q01DX009 (ip), vehicle: Klucel (hydroxypropylcellulose) (HPC)
[23] = dose: 200.0 mg/kg/injection, schedule: Q01DX009 (ip), vehicle: Klucel (hydroxypropylcellulose) (HPC)
[24] = dose: 200.0 mg/kg/injection, schedule: Q01DX009 (ip), vehicle: saline

Measured: T/C

Nc1nc(N)c(N=O)c(N)n1
inactive: dose: 44.0 mg/kg/injection, schedule: Q01DX009 (ip), vehicle: saline 104 % of control | dose: 66.0 mg/kg/injection, schedule: Q01DX009 (ip), vehicle: saline 104 % of control | [1] 104 % of control | dose: 150.0 mg/kg/injection, schedule: Q01DX009 (ip), vehicle: saline 102 % of control

[B-]1n2ccc[n+]2[B-]n2ccc[n+]21
inactive: [2] 100 % of control | [3] 100 % of control | [4] 98 % of control

O=[N+]([O-])c1cccn2cnnc12
inactive: [5] 98 % of control | [1] 87 % of control

C=CC(C)(C)C1(O)Oc2cc(OC)ccc2C=C1c1ccccc1 (stereo not drawn)
inactive: [6] 101 % of control | dose: 200.0 mg/kg/injection, schedule: Q01DX001 (ip), vehicle: Klucel (hydroxypropylcellulose) (HPC) 101 % of control | dose: 400.0 mg/kg/injection, schedule: Q01DX001 (ip), vehicle: Klucel (hydroxypropylcellulose) (HPC) 91 % of control

Nc1ccc(C(=O)Oc2ccc(OC(=O)c3ccc(N)cc3)cc2)cc1
inactive: dose: 25.0 mg/kg/injection, schedule: Q01DX001 (ip), vehicle: Klucel (hydroxypropylcellulose) (HPC) 99 % of control | dose: 50.0 mg/kg/injection, schedule: Q01DX001 (ip), vehicle: Klucel (hydroxypropylcellulose) (HPC) 96 % of control | [6] 101 % of control

COP1(=O)OC(C)=C(C)c2cccn21 (stereo not drawn)
inactive: dose: 25.0 mg/kg/injection, schedule: Q04DX003 (ip), vehicle: saline with Tween-80 103 % of control | [7] 106 % of control | [8] 99 % of control and 96 % of control

CCCCCc1nc2c(c3c1CCCC3)CCCC2
inactive: dose: 60.0 mg/kg/injection, schedule: Q01DX005 (ip), vehicle: saline 98 % of control | dose: 120.0 mg/kg/injection, schedule: Q01DX005 (ip), vehicle: saline 106 % of control | dose: 240.0 mg/kg/injection, schedule: Q01DX005 (ip), vehicle: saline 107 % of control

O=C(NCc1cc(CNC(=O)c2cccc(O)c2O)cc(CNC(=O)c2cccc(O)c2O)c1)c1cccc(O)c1O
inactive: dose: 12.5 mg/kg/injection, schedule: Q01DX005 (ip), vehicle: saline with Tween-80 93 % of control | dose: 25.0 mg/kg/injection, schedule: Q01DX005 (ip), vehicle: saline with Tween-80 102 % of control | [9] 99 % of control and 107 % of control

Cc1ccc2oc(C(=O)Nc3nnc(-c4ccccc4)s3)cc(=O)c2c1
inactive: [9] 96 % of control | [10] 94 % of control | [11] 94 % of control

OCCN(CCO)Cc1nc2ccccc2[nH]1
inactive: [12] 104 % of control | [13] 99 % of control | [14] 101 % of control

Cc1cnc(Sc2ncccn2)c(C(=O)O)c1[N+](=O)[O-]
inactive: [15] 101 % of control | [16] 99 % of control | [17] 100 % of control

CCCCc1c(C(=O)OCC)oc(C(=O)OCC)c(CCCC)c1=O
inactive: dose: 12.5 mg/kg/injection, schedule: Q04DX003 (ip), vehicle: Klucel (hydroxypropylcellulose) (HPC) 108 % of control | dose: 25.0 mg/kg/injection, schedule: Q04DX003 (ip), vehicle: Klucel (hydroxypropylcellulose) (HPC) 104 % of control | [18] 103 % of control | [19] 100 % of control | [20] 104 % of control | dose: 400.0 mg/kg/injection, schedule: Q04DX003 (ip), vehicle: Klucel (hydroxypropylcellulose) (HPC) 106 % of control

N#C/C(OC1OC(CO)C(O)C(O)C1O)=C(\C=C/C(=O)O)CC(=O)O (stereo not drawn)
inactive: [12] 105 % of control | [13] 106 % of control | [14] 105 % of control

CCn1c(=O)c2[nH]c(Cl)nc2n(CCOC)c1=O
inactive: [21] 116 % of control | [22] 96 % of control | [23] 111 % of control

COCCOC(=O)NCP(Cl)(CNC(=O)OCCOC)(CNC(=O)OCCOC)CNC(=O)OCCOC
inactive: [5] 100 % of control | [1] 99 % of control | [24] 105 % of control

N/C(=N/S(=O)(=O)c1cccc([N+](=O)[O-])c1)NS(=O)(=O)c1ccc([N+](=O)[O-])cc1
inactive: dose: 7.5 mg/kg/injection, schedule: Q01DX009 (ip), vehicle: saline with Tween-80 101 % of control | dose: 15.0 mg/kg/injection, schedule: Q01DX009 (ip), vehicle: saline with Tween-80 113 % of control | dose: 30.0 mg/kg/injection, schedule: Q01DX009 (ip), vehicle: saline with Tween-80 110 % of control

Cc1csc2ncnc(N)c12
inactive: [18] 106 % of control | [19] 115 % of control | [20] 108 % of control

CC/C(=N\NS(=O)(=O)c1ccc(C)cc1)c1ccc(OC)c(C)c1
inactive: dose: 50.0 mg/kg/injection, schedule: Q01DX009 (ip), vehicle: saline with Tween-80 105 % of control | [5] 104 % of control | dose: 100.0 mg/kg/injection, schedule: Q01DX009 (ip), vehicle: saline with Tween-80 97 % of control | dose: 200.0 mg/kg/injection, schedule: Q01DX009 (ip), vehicle: saline with Tween-80 99 % of control | [24] 96 % of control

O=C1CCN(C(=O)C2=CC(=O)OC2)C1
inactive: dose: 12.5 mg/kg/injection, schedule: Q01DX005 (ip), vehicle: Klucel (hydroxypropylcellulose) (HPC) 100 % of control | dose: 25.0 mg/kg/injection, schedule: Q01DX005 (ip), vehicle: Klucel (hydroxypropylcellulose) (HPC) 93 % of control | [15] 100 % of control

COC(=O)CCC(NC(=O)C(CCCCN)N(C(=O)OCc1ccccc1)C(=O)OCc1ccccc1)C(=O)OC (stereo not drawn)
inactive: [9] 101 % of control | [10] 101 % of control | [11] 98 % of control

CCNc1ccc(F)cc1[N+](=O)[O-]
inactive: [7] 100 % of control | [8] 100 % of control | dose: 200.0 mg/kg/injection, schedule: Q04DX003 (ip), vehicle: saline with Tween-80 86 % of control

O=NN(CCCl)C(=O)OCc1ccccc1
inactive: dose: 3.12 mg/kg/injection, schedule: Q01DX001 (ip), vehicle: saline with Tween-80 101 % of control | dose: 6.25 mg/kg/injection, schedule: Q01DX001 (ip), vehicle: saline with Tween-80 100 % of control and 123 % of control | dose: 12.5 mg/kg/injection, schedule: Q01DX001 (ip), vehicle: saline with Tween-80 108 % of control and 113 % of control | dose: 25.0 mg/kg/injection, schedule: Q01DX001 (ip), vehicle: saline with Tween-80 110 % of control and 123 % of control

O=c1[nH]c2c([N+](=O)[O-])cc(Cl)cc2nc1/C=C(\O)c1cccnc1
inactive: dose: 60.0 mg/kg/injection, schedule: Q01DX005 (ip), vehicle: Klucel (hydroxypropylcellulose) (HPC) 99 % of control | dose: 120.0 mg/kg/injection, schedule: Q01DX005 (ip), vehicle: Klucel (hydroxypropylcellulose) (HPC) 99 % of control | dose: 240.0 mg/kg/injection, schedule: Q01DX005 (ip), vehicle: Klucel (hydroxypropylcellulose) (HPC) 111 % of control

COc1nc(N)nc2c1CSc1ccccc1-2
inactive: [15] 97 % of control | [16] 97 % of control | [17] 90 % of control

Clc1ccc(/C=C/c2ccc3ccccc3n2)cc1
inactive: [21] 109 % of control | [22] 102 % of control | [23] 107 % of control | dose: 400.0 mg/kg/injection, schedule: Q01DX009 (ip), vehicle: Klucel (hydroxypropylcellulose) (HPC) 93 % of control

CSc1nc(SC)c2c(CNC(C)=O)cn(Cc3ccccc3)c2n1
inactive: dose: 50.0 mg/kg/injection, schedule: Q01DX001 (ip), vehicle: saline with Tween-80 87 % of control | dose: 200.0 mg/kg/injection, schedule: Q01DX001 (ip), vehicle: saline with Tween-80 86 % of control and 87 % of control

CC(CN(C)C)C(=O)/C=C/c1c(Cl)cccc1Cl (stereo not drawn)
inactive: [4] 111 % of control

COc1ccc2c(c1)N=C(NNC1=Nc3cc(OC)ccc3SC1)CS2
inactive: [2] 113 % of control and 97 % of control | [3] 101 % of control and 102 % of control | [4] 100 % of control and 91 % of control
